ChEMBL document CHEMBL1201862, “PubChem BioAssay data set” (2004)
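Cultured in 96-well plates, cells were exposed to test compound for 48 hours across five concentrations. Abbreviation: GI50, concentration required for 50% inhibition of growth.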 Active and inactive are the calls of the source. Cut-off read from the data, not from the text of the source: active = GI50 up to about 1.1 µM and inactive = higher. *1 amine or outer side, *2 acyl side, *3 side chain or, on linkers, in order; H or OH if unused. Where a SMILES comes first, the peptide text is derived from it. Bridges are numbered along the chain shown (N, C = ends). Roman numbers before positions name the chains, in order. [ ]: non-standard residue; d: D form. Actinocin(9to1) = Cc1c2oc3c(C)ccc(C(=O)[*:1])c3nc-2c(C(=O)[*:2])c(N)c1=O; NMeV = CN[CH](C(=O)O)C(C)C; Sar = CNCC(=O)O

What was measured:
Experiment in all cases: inhibition of tumour cell growth, NCI panel, 48 h
HL-60 = tested on: HL-60
Hs-578T = tested on: Hs-578T
UACC-257 = tested on: UACC-257
CCRF-CEM = tested on: CCRF-CEM
SK-MEL-28 = tested on: SK-MEL-28
SK-MEL-2 = tested on: SK-MEL-2
KM12 = tested on: KM12
RXF 393 = tested on: RXF 393
SK-OV-3 = tested on: SK-OV-3
M14 = tested on: M14
OVCAR-5 = tested on: OVCAR-5
HOP-62 = tested on: HOP-62
SW-620 = tested on: SW-620
CAKI-1 = tested on: CAKI-1
SF-268 = tested on: SF-268
A549 = tested on: A549
IGROV-1 = tested on: IGROV-1
SF-295 = tested on: SF-295
NCI-H23 = tested on: NCI-H23
NCI-H522 = tested on: NCI-H522

Structure (SMILES): Cc1c2oc3c(C)ccc(C(=O)NC4C(=O)NC(C(C)O)C(=O)N5CCCC5C(=O)N(C)CC(=O)N(C)C(C(C)C)C(=O)OC4C)c3nc-2c(C(=O)NC2C(=O)NC(C(C)O)C(=O)N3CCCC3C(=O)N(C)CC(=O)N(C)C(C(C)C)C(=O)OC2C)c(N)c1=O (stereo not given) (I: TTP[Sar][NMeV] / II: TTP[Sar][NMeV]; ester I:1-I:C, II:1-II:C; linker I:N-II:N via Actinocin(9to1); configuration not given here)
- GI50 (HL-60): 437 nM (active)
- GI50 (Hs-578T): 1410 nM (inactive)
- GI50 (UACC-257): 244 nM (active)
- GI50 (CCRF-CEM): 119 nM (active)
- GI50 (SK-MEL-28): 147 nM (active)
- GI50 (SK-MEL-2): 133 nM (active)
- GI50 (KM12): 185 nM (active)
- GI50 (RXF 393): 94.6 nM (active)
- GI50 (SK-OV-3): 2210 nM (inactive)
- GI50 (M14): 811 nM (active)
- GI50 (OVCAR-5): 1950 nM (inactive)
- GI50 (HOP-62): 498 nM (active)
- GI50 (SW-620): 67 nM (active)
- GI50 (CAKI-1): 4070 nM (inactive)
- GI50 (SF-268): 198 nM (active)
- GI50 (A549): 783 nM (active)
- GI50 (IGROV-1): 135 nM (active)
- GI50 (SF-295): 453 nM (active)
- GI50 (NCI-H23): 274 nM (active)
- GI50 (NCI-H522): 76.6 nM (active)
